In the supplement of paper PMC9938120:

Legend:
Test in all cases: drug sensitivity score (DSS3, normalised partial AUC of % inhibition dose-response) (DSS (score)); higher = more sensitive (stronger inhibition of viability); extreme values may be limits of the assay
FMOC02_1 = patient-derived low-grade serous ovarian cancer cells; conditions: 72 h; library: FO5A; assay format: 2D, 384-well, CellTiter-Glo
Procedure, shortened: (§1)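 Patient-derived ovarian cancer cells (early passage, under 10) were dispensed onto 384-well flat clear-bottom plates pre-plated with compounds at five concentrations covering a 10,000-fold range. Plates were incubated 72 h at 37 °C, 5% CO2, and viability was read with CellTiter-Glo. Data were processed in Breeze. The drug sensitivity score (DSS3) is a partial area under the percent-inhibition dose-response curve, divided by the log of the upper asymptote; higher means more sensitive.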

FMOC11 = patient-derived high-grade serous ovarian cancer cells; conditions: 72 h; library: FO5A; assay format: 2D, 384-well, CellTiter-Glo
Procedure, shortened: as §1

FMOC28 = patient-derived low-grade serous ovarian cancer cells; conditions: 72 h; library: FO5A; assay format: 2D, 384-well, CellTiter-Glo
Procedure, shortened: as §1

FMOC02_2 = patient-derived low-grade serous ovarian cancer cells; conditions: 72 h; library: FO5A; assay format: 2D, 384-well, CellTiter-Glo
Procedure, shortened: as §1

FMOC04 = patient-derived high-grade serous ovarian cancer cells; conditions: 72 h; library: FO5A; assay format: 2D, 384-well, CellTiter-Glo
Procedure, shortened: as §1

FMOC24 = patient-derived high-grade serous ovarian cancer cells; conditions: 72 h; library: FO5A; assay format: 2D, 384-well, CellTiter-Glo
Procedure, shortened: as §1

FMOC02_3 = patient-derived low-grade serous ovarian cancer cells; conditions: 72 h; library: FO5A; assay format: 2D, 384-well, CellTiter-Glo
Procedure, shortened: as §1

FMOC09 = patient-derived high-grade serous ovarian cancer cells; conditions: 72 h; library: FO5A; assay format: 2D, 384-well, CellTiter-Glo
Procedure, shortened: as §1

FMOC25_2 = patient-derived low-grade serous ovarian cancer cells; conditions: 72 h; library: FO5A; assay format: 2D, 384-well, CellTiter-Glo
Procedure, shortened: as §1

FMOC25_1 = patient-derived low-grade serous ovarian cancer cells; conditions: 72 h; library: FO4B; assay format: 2D, 384-well, CellTiter-Glo
Procedure, shortened: as §1

FMOC06 = patient-derived mucinous ovarian cancer cells; conditions: 72 h; library: FO5A; assay format: 2D, 384-well, CellTiter-Glo
Procedure, shortened: as §1

FMOC27 = patient-derived low-grade serous ovarian cancer cells; conditions: 72 h; library: FO5A; assay format: 2D, 384-well, CellTiter-Glo
Procedure, shortened: as §1

FMOC14 = patient-derived high-grade serous ovarian cancer cells; conditions: 72 h; library: FO5A; assay format: 2D, 384-well, CellTiter-Glo
Procedure, shortened: as §1

FMOC17 = patient-derived low-grade serous ovarian cancer cells; conditions: 72 h; library: FO5A; assay format: 2D, 384-well, CellTiter-Glo
Procedure, shortened: as §1

FMOC03 = patient-derived mucinous ovarian cancer cells; conditions: 72 h; library: FO5A; assay format: 2D, 384-well, CellTiter-Glo
Procedure, shortened: as §1

FMOC22 = patient-derived mucinous ovarian cancer cells; conditions: 72 h; library: FO5A; assay format: 2D, 384-well, CellTiter-Glo
Procedure, shortened: as §1

SMILES	drug sensitivity score (FMOC02_1)	drug sensitivity score (FMOC11)	drug sensitivity score (FMOC28)	drug sensitivity score (FMOC02_2)	drug sensitivity score (FMOC04)	drug sensitivity score (FMOC24)	drug sensitivity score (FMOC02_3)	drug sensitivity score (FMOC09)	drug sensitivity score (FMOC25_2)	drug sensitivity score (FMOC25_1)	drug sensitivity score (FMOC06)	drug sensitivity score (FMOC27)	drug sensitivity score (FMOC14)	drug sensitivity score (FMOC17)	drug sensitivity score (FMOC03)	drug sensitivity score (FMOC22)
C[C@]12CC[C@H](O)CC1=CC[C@@H]1[C@@H]2CC[C@]2(C)C(c3cccnc3)=CC[C@@H]12 [Abiraterone]	0	0	0.6	1.3	0.05	4.9	0	0	0.6	0.3	0.1	0	2.3	0	0	0
Cn1ncc(Cl)c1-c1cc(C(=O)N[C@H](CN)Cc2cccc(F)c2)sc1Cl [Afuresertib]	4.7	0.2	3.8	6.6	1.65	1.3	4.4	1	4.3	2.9	2.9	5.4	3.2	3	0	0
CCc1cc2c(cc1N1CCC(N3CCOCC3)CC1)C(C)(C)c1[nH]c3cc(C#N)ccc3c1C2=O [Alectinib]	1.7	0.7	1.7	1.5	0	0.3	0.6	0	0	0.1	0.2	1.2	0	0.8	0.3	0
Oc1ncnc2[nH]ncc12 [Allopurinol]	0	0	0	0	0	0	0	0	0	1.3	0	0	0	0	0	0
Cc1nc(NC(=O)N2CCC[C@H]2C(N)=O)sc1-c1ccnc(C(C)(C)C(F)(F)F)c1 [Alpelisib]	5.3	1.4	5.9	5.7	0.9	0.35	6.5	4.3	4.8	4.7	4.1	0.2	0	1.9	2.3	0.7
CCC1(c2ccc(N)cc2)CCC(=O)NC1=O (stereo not drawn) [Aminoglutethimide]	0	0	0	0.1	0	1.05	0.6	0	0	0.4	0	0	0	0.1	0	0
S=C(NCc1ccc2c(c1)OCO2)N1CCN(c2ncnc3c2oc2ccccc23)CC1 [Amuvatinib]	0.4	0.7	0	0	0.3	0	0	0	0	0	0.8	0	2	0.3	2.6	2.2
CC(C)(C#N)c1cc(Cn2cncn2)cc(C(C)(C)C#N)c1 [Anastrozole]	0	0	0	0	0	0	0	0	0	0	0	0	0	0	0	0
N#CC1(c2ccc(NC(=O)c3cccnc3NCc3ccncc3)cc2)CCCC1 [Apatinib]	0.3	0	4.5	1.1	0.6	0.1	1.5	0	1.5	2.3	0	0	0	0	0	0
CC(C)c1c(C(=O)Nc2ccccc2)c(-c2ccccc2)c(-c2ccc(F)cc2)n1CC[C@@H](O)C[C@@H](O)CC(=O)O [Atorvastatin]	1	3.1	5.3	1.9	0.65	6.75	1.5	4.9	3.2	0.6	1.6	0	3.2	2.9	2.9	4.5
CNC(=O)c1ccccc1Sc1ccc2c(/C=C/c3ccccn3)n[nH]c2c1 [Axitinib]	1.9	0.1	0	0.5	0.45	2.15	0.1	0	0	0	0	0	0	0.3	2.1	1.2
Nc1nc(Nc2ccc3c(c2)CC[C@@H](N2CCCC2)CC3)nn1-c1cc2c(nn1)-c1ccccc1CCC2 [BGB324]	7.2	4.4	0.8	5	5.35	7.9	7.6	0.9	2.7	5.1	3.7	0.3	6.2	3.8	2.4	1.7
Cc1ccc(NC(=O)c2ccc(CN3CC[C@H](N(C)C)C3)c(C(F)(F)F)c2)cc1Nc1nccc(-c2cncnc2)n1 [Bafetinib]	0.2	0	0.1	0	0	0	0.1	0	0	0	0	0	0	0	0	0
